One block for each molecule: values may come before it.
What was measured:
[1] = Cmax in CB17SCID mouse at 125 mg/kg, po and measured upto 24 hrs; type: ADME, organism-based; parameters: dose 125 mg/kg, time < 24 hrs, route po; details: in vivo
[2] = AUC in CB17SCID mouse at 125 mg/kg, po and measured upto 24 hrs; type: ADME, organism-based; parameters: dose 125 mg/kg, time < 24 hrs, route po; details: in vivo
[3] = target: Tumour suppressor p53/oncoprotein Mdm2 (Homo sapiens, UniProt Q00987); assay: Inhibition of recombinant human MDM2/p53 interaction; type: protein assay
[4] = system: IMR-5; assay: Antiproliferative activity against human IMR-5 cells harboring wildtype TP53 assessed as reduction in cell viability and measured upto 72 hrs by XTT assay; type: functional, cell-based; details: IMR-5, 72 h
[5] = system: IMR-32; assay: Antiproliferative activity against human IMR-32 cells harboring wildtype TP53 assessed as reduction in cell viability and measured upto 72 hrs by XTT assay; type: functional, cell-based; details: IMR-32, 72 h
[6] = system: SH-SY5Y; assay: Antiproliferative activity against human SH-SY5Y cells harboring wildtype TP53 assessed as reduction in cell viability and measured upto 72 hrs by XTT assay; type: functional, cell-based
[7] = system: SK-N-SH; assay: Antiproliferative activity against human SK-N-SH cells harboring wildtype TP53 assessed as reduction in cell viability and measured upto 72 hrs by XTT assay; type: functional, cell-based
[8] = Antiproliferative activity against human LA-N-5 cells harboring wildtype TP53 assessed as reduction in cell viability and measured upto 72 hrs by XTT assay; type: functional, cell-based; details: LA-N-5, 72 h
[9] = Antiproliferative activity against human Kelly cells harboring TP53 mutant assessed as reduction in cell viability and measured upto 72 hrs by XTT assay; type: functional, cell-based
[10] = Oral bioavailability in Sprague-Dawley rat at 2 mg/kg by LC-MS/MS method; type: ADME, organism-based; details: in vivo
[11] = Oral bioavailability in CD-1 mouse at 5 mg/kg by LC-MS/MS method; type: ADME, organism-based; details: in vivo
[12] = Oral bioavailability in cynomolgus monkey at 2 mg/kg by LC-MS/MS method; type: ADME, organism-based, Macaca fascicularis; details: in vivo
[13] = Oral bioavailability in Beagle dog at 2 mg/kg by LC-MS/MS method; type: ADME, organism-based, Canis lupus familiaris; details: in vivo
[14] = system: SJSA-1; assay: animal or person; details: Mus musculus, SJSA-1, po, read-out: TGI
Description: Antitumor activity against human SJSA-1 xenografted Balb/c mouse assessed as tumor growth inhibition at 50 mg/kg,po administered daily by caliper method

[15] = animal or person; details: Homo sapiens, MHM, po, read-out: TGI
Description: Antitumor activity against human MHM xenografted Balb/c mouse assessed as tumor growth inhibition at 50 mg/kg,po administered daily by caliper method

Tumour suppressor p53/oncoprotein Mdm2, sequence (P04637 whole entry): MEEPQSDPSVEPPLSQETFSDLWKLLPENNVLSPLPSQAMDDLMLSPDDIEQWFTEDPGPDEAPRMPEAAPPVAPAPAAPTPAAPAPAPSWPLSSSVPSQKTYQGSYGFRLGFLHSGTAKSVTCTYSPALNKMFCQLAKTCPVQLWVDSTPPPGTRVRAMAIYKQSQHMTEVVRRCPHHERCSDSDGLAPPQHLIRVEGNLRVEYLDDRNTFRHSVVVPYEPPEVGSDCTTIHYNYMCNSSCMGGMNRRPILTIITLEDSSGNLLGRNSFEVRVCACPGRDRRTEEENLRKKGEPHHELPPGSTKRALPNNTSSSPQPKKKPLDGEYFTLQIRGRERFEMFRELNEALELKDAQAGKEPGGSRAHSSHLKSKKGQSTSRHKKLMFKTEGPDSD
Tumour suppressor p53/oncoprotein Mdm2, sequence (Q00987 whole entry): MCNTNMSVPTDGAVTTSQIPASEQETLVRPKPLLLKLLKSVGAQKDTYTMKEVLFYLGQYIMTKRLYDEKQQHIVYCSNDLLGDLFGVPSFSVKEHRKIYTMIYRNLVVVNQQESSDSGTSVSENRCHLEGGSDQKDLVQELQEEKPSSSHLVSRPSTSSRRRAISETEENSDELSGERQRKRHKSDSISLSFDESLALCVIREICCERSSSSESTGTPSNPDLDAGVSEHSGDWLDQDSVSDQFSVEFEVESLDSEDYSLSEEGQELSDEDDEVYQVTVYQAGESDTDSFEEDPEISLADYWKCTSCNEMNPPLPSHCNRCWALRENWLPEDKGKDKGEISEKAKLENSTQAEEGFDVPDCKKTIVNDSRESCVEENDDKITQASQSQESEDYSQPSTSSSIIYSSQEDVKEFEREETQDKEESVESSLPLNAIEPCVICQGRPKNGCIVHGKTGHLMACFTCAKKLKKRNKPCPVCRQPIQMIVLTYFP

Cmax [1]: 40 µM | AUC at 24 h [2]: 200 µM·h
Structure (SMILES): CCC[C@H]1N(C(=O)c2ncccc2C(F)(F)F)CCC[C@@]1(Oc1csc(C(F)(F)F)c1)C(=O)N1CCC(O)(c2ccccc2O[C@H](C)CCC2(C(=O)O)CCC2)CC1

IC50 [3]: 0.13 nM
Structure (SMILES): COc1ccccc1-n1nc2c(c1C(C)C)[C@H](c1ccc(Cl)cc1C)N(c1cc(Cl)cc(OCCN(C)C)c1)C2=O

Structure (SMILES): CC1(C)CCC2(CC1)N[C@H](C(=O)N[C@@H]1CC[C@@H](C(N)=O)OC1)[C@H](c1ccnc(Cl)c1F)[C@]21C(=O)Nc2cc(Cl)ccc21
IC50 [4]: 25.7 nM | IC50 [5]: 56.2 nM | IC50 [6]: 17.7 nM | IC50 [7]: 21.9 nM | IC50 [8]: 44.1 nM | IC50 [9]: > 2000 nM

bioavailability [10]: > 42% | bioavailability [11]: > 43% | bioavailability [12]: > 44% | bioavailability [13]: 18%
Structure (SMILES): CC(C)[C@@H](CS(=O)(=O)C(C)C)N1C(=O)[C@@](C)(CC(=O)O)C[C@H](c2cccc(Cl)c2)[C@H]1c1ccc(Cl)cc1 [NAVTEMADLIN]

Structure (SMILES): CCOc1cc(C(C)(C)C)ccc1C1=N[C@@](C)(c2ccc(Cl)cc2)[C@@](C)(c2ccc(Cl)cc2)N1C(=O)N1CCN(CCCS(C)(=O)=O)CC1 [RO-5045337]
inhibition in vivo at 50 mg/kg [14]: 74% | inhibition in vivo at 50 mg/kg [15]: 69%

— ChEMBL document CHEMBL5126548, “Small-molecule MDM2 inhibitors in clinical trials for cancer therapy” (Eur J Med Chem, 2022)
